Laboratory results reported in patent US8887721B2, “Attenuation of vasoactive oxygen carrier-induced vasoconstriction” (The General Hospital Corporation, priority 2006, dated 2014).
Read-outs that look alike come from different tables or passages of the source.

Experiments:
[1] = tested on: awake lambs; assay type: in vivo, lamb
Description: Lambs were briefly anesthetized, given a tracheostomy, the internal jugular vein was percutaneously catheterized and a flow directed Swan Ganz catheter passed into the pulmonary artery to permit measurements of central hemodynamics and cardiac output by thermaldilution. An arterial line was placed in the carotid artery. Animals were allowed several hours to awaken from anesthesia and were studied awake and restrained in a harness. Three groups of lambs were studied: (1) “autologous whole blood” animals donated autologous blood, which was stored with heparin anti-coagulation at 4° C.—two days later they received an infusion of their 37° C. autologous whole blood (12 ml/kg over 20 minutes) while breathing at FiO2=0.3 (n=3); (2) “HBOC-201” animals received an infusion of HBOC-201 (12 ml/kg over 20 minutes) while breathing at FiO2=0.3 (n=3); and (3) “HBOC-201 after iNO” animals inhaled 80 ppm nitric oxide at FiO2=0.3 for one hour before receiving an infusion of HBOC-201 (12 ml/kg over 20 minutes) (n=5). Systemic vascular resistance (SVR) and pulmonary vascular resistance (PVR) were calculated using standard formulae as follows: [SVR ([…])=(MAP−CVP)/CO*79.96]; and [PVR ([…])=(PAP−PCWP)/CI*79.96].
(1) “Autologous whole blood” animals received an infusion of 37° C. autologous whole blood (12 ml/kg over 20 minutes) while breathing at FiO2=0.3 (n=3); (2) “HBOC-201” animals received an infusion of 37° C. HBOC-201 (12 ml/kg over 20 minutes) while breathing at FiO2=0.3 (n=3); and (3) “HBOC-201 after high and low dose iNO” animals inhaled 80 ppm nitric oxide at FiO2=0.3 for one hour before receiving an infusion of HBOC-201 (12 ml/kg over 20 minutes), which was followed by breathing 5 ppm nitric oxide at FiO2=0.3 for two hours, which was followed by breathing at FiO2=0.3 (and discontinued inhalation of nitric oxide gas) for another one hour (n=4).

[2] = target: T1, plasma hemoglobin (Mus musculus, UniProt P01942+P02088); assay type: in vivo
T1 construct: The blood was frozen and thawed three times and then centrifuged; from tissue; host or cells: whole blood of wild type C57BL/6 mice (hemolysate, filtered, dialysed, concentrated)
Protocol: Hemoglobin and methemoglobin concentration in whole blood and plasma were determined by the cyanomethemoglobin method measuring OD at 540 nm and 630 nm with a Spectrophotometer-Biomate 3 (Thermoelectron Corporation, Waltham, Mass.).
(§1) The effects of breathing nitric oxide on systolic tail blood pressure after the infusion of murine tetrameric hemoglobin solution were monitored every 10 minutes for the 1st hour and every 20 minutes for the rest of the experiments. Blood hemoglobin and methemoglobin levels were measured every 15 minutes in the nitric oxide pretreatment group, wherein all mice breathed nitric oxide at 80 ppm for 1 hour before infusion. Hemoglobin and methemoglobin levels in whole blood and plasma were measured in additional mice after the intravenous infusion of tetrameric hemoglobin solution at 10 minutes and 60 minutes while breathing nitric oxide at 8 ppm or 80 ppm throughout the experiment.

[3] = target: plasma hemoglobin (Bos taurus, UniProt P01966+P02070); test: Plasma methemoglobin concentration in awake lambs; assay type: in vivo, lamb
Description: Lambs were briefly anesthetized, given a tracheostomy, the internal jugular vein was percutaneously catheterized and a flow directed Swan Ganz catheter passed into the pulmonary artery to permit measurements of central hemodynamics and cardiac output by thermaldilution. An arterial line was placed in the carotid artery. Animals were allowed several hours to awaken from anesthesia and were studied awake and restrained in a harness. […] Systemic vascular resistance (SVR) and pulmonary vascular resistance (PVR) were calculated using standard formulae as follows: [SVR ([…])=(MAP−CVP)/CO*79.96]; and [PVR ([…])=(PAP−PCWP)/CI*79.96].
Methemoglobin concentration in plasma was measured before and after breathing 80 ppm nitric oxide for one hour (and before and after infusion of autologous whole blood or HBOC-201). […]
Plasma methemoglobin concentration was measured before and after breathing nitric oxide at various concentrations (and before and after infusion of autologous whole blood or HBOC-201).

[4] = tested on: anesthetized wild type and NOS3−/− mice; test: Invasive hemodynamic measurements in anesthetized mice; assay type: in vivo, mouse; details: for CO (cardiac output) / CVP (central venous pressure) / Ea (arterial elastance) / HR (heart rate) / LVEDP (left ventricular end-diastolic pressure) / LVESP (left ventricular end-systolic pressure) / SVR (systemic vascular resistance) / Tau (time constant of isovolumic relaxation) / dP/dtmax (maximum rate of developed left ventricular pressure) / dP/dtmin (minimum rate of developed left ventricular pressure): mean ± SEM
Protocol: To explore the mechanisms by which infusion of tetrameric hemoglobin causes systemic hypertension in awake wild type mice, invasive hemodynamic measurements were performed in anesthetized wild type and NOS3^−/− mice before and three minutes after infusion of murine tetrameric hemoglobin or whole murine blood as a control. Mice were anesthetized with an intraperitoneal injection of ketamine (100 mg/kg) and xylazine (5 mg/kg). Muscle relaxation was obtained by adding pancuronium (5 μg/g) after tracheal intubation. […] Two saline-filled PE-10 catheters were inserted separately via the jugular veins; one for monitoring central venous pressure (CVP) and the other for infusion of whole blood or tetrameric hemoglobin solution. A Millar pressure-volume catheter was inserted retrograde via the right carotid artery into the left ventricle (1.4F, model SPR839, Millar Instruments Inc., Houston, Tex.). After obtaining stable hemodynamic measurements, whole blood (1.44 g Hb/kg) or murine tetrameric Hb solution (0.48 g/kg) was infused through the jugular vein, at a rate of 100 μl/min for 3 min. PVAN software was used to analyze left ventricular pressure-volume loop data (Conductance Technologies Inc., San Antonio, Tex.).

[5] = tested on: awake mice; test: Tail-cuff systolic blood pressure in awake mice; assay type: in vivo, mouse; details: for tail systolic blood pressure after intravenous injection: awake wild type mice, 0.012 ml/g body weight i.v.
Protocol: The mouse was placed in a restrainer for this procedure. All mice were handled briefly and gently to inject a tetrameric hemoglobin solution into a lateral tail vein. Before injection, the tail was warmed under an infra-red heat lamp for 5 minutes to enable access to the vein. The injection volume was 0.012 ml/g body weight for each mouse. Infusion was done during the course of one minute.
With the use of volumetrically calibrated flowmeters (Cole-Parmer, Vernon Hills, Ill.), nitric oxide gas (800 ppm in nitrogen; INO Therapeutics, Clinton, […], Clinton, N.J.). The nitric oxide, nitrogen dioxide and oxygen (21%) levels were continuously monitored (INOvent delivery system, Datex-Ohmeda, Madison, Wis.).
as §1
Systolic blood pressure was measured with a non-invasive tail-cuff machine (XBP 1000, Kent Scientific, Torrington, Conn.) in wild type mice and NOS3^−/− mice. Mice were first subjected to one or two practice sessions to acclimate them to the device. The mouse was placed in a restrainer for a short period of time (<1 minute to start), then kept in the restrainer for longer times to acclimate to the device. The degree of acclimatization was judged by the absence of agitation in the device. After a few days of practice sessions, mice were restrained in a commercial mouse restraint device (Kent Scientific, Torrington, Conn.). […]
All values are expressed as mean±SEM. Data were analyzed using ANOVA. The difference in hemodynamic parameters before and after infusion of murine tetrameric hemoglobin or nitric oxide inhalation was examined by a paired t-test for repeated measurements. P values less than 0.05 were considered significant (as indicated by a * in the figures).

[6] = lambs breathing 80 ppm nitric oxide for one hour before HBOC-201, terminated immediately before infusion
[7] = lambs: 80 ppm nitric oxide one hour before HBOC-201, then 5 ppm after the infusion
[8] = NOS3−/− mice breathing air, three minutes after infusion
[9] = WT mice breathing air, three minutes after infusion
[10] = WT ± iNO: WT mice breathing 80 ppm NO in air for 15 min, NO discontinued, then infusion

T1 sequence (P01942 2-142 limits assumed): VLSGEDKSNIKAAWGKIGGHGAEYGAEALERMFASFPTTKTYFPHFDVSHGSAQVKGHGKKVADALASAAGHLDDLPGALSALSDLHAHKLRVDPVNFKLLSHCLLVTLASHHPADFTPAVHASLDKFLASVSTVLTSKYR
T1 sequence (P02088 2-147 limits assumed): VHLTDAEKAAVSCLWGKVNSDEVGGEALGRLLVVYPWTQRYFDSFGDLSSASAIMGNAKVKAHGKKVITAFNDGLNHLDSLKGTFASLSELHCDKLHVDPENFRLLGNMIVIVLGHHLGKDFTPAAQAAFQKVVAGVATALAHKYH
plasma hemoglobin (Bos taurus, UniProt P01966+P02070), sequence (P01966 2-142 limits assumed): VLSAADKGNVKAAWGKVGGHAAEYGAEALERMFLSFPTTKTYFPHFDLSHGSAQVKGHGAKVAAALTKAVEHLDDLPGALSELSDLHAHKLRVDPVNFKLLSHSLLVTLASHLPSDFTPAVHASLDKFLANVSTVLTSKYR
plasma hemoglobin (Bos taurus, UniProt P01966+P02070), sequence (P02070 whole entry): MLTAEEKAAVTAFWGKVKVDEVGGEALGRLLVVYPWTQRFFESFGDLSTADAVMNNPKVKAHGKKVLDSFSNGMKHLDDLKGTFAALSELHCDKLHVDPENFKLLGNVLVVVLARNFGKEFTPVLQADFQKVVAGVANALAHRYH

## [N]=O [nitric oxide]
[1]; lambs administered HBOC-201
  pulmonary hypertension after inhalation of 5 ppm nitric oxide was abruptly discontinued: rebounded
[1]; [6]
  increase in mean arterial pressure after HBOC-201 infusion: blocked the increase
  increase in pulmonary arterial pressure after HBOC-201 infusion: did not block the increase
  increase in pulmonary vascular resistance after HBOC-201 infusion: did not block the increase
  increase in systemic vascular resistance after HBOC-201 infusion: blocked the increase
[1]; [7]
  increase in mean arterial pressure after HBOC-201 infusion: blocked the increase
  increase in pulmonary arterial pressure after HBOC-201 infusion: blocked the increase
  increase in pulmonary vascular resistance after HBOC-201 infusion: blocked the increase
  increase in systemic vascular resistance after HBOC-201 infusion: blocked the increase
[2]; wild type mice breathing 80 ppm nitric oxide for one hour before infusion of murine tetrameric hemoglobin solution, terminated at infusion
  conversion of plasma hemoglobin to methemoglobin: < 5%
[2]; wild type mice breathing 80 ppm nitric oxide while given murine tetrameric hemoglobin solution, 10 and 60 minutes after injection
  conversion of plasma hemoglobin to methemoglobin: conversion of a significant proportion of plasma hemoglobin to inactive methemoglobin
[3]; 80 ppm nitric oxide for one hour before HBOC-201, terminated at infusion
  plasma methemoglobin compared to lambs that received HBOC-201 without nitric oxide: did not result in an increase in plasma methemoglobin
[3]; 80 ppm nitric oxide one hour before HBOC-201, then 5 ppm after the infusion
  plasma methemoglobin compared to animals that received HBOC-201 without nitric oxide: did not result in an increase in plasma methemoglobin
[4]; wild type mice pretreated with inhaled nitric oxide at 80 ppm for 15 minutes
  increase of LVESP, LVEDP, SVR, Ea and τ induced by murine tetrameric hemoglobin infusion: abolished the increase of LVESP, LVEDP, SVR, Ea, and τ
[5]; wild type mice breathing 80 ppm nitric oxide continuously before and subsequent to infusion of murine tetrameric hemoglobin solution
  hemoglobin-induced elevation in systolic blood pressure: prevented a hemoglobin-induced elevation in systolic blood pressure
[5]; wild type mice breathing 80 ppm nitric oxide for 15 minutes before infusion, terminated at infusion
  hemoglobin-induced elevation in systolic blood pressure: prevented a hemoglobin-induced elevation in systolic blood pressure
[5]; wild type mice breathing 80 ppm nitric oxide for one hour before infusion, terminated at infusion
  hemoglobin-induced elevation in systolic blood pressure: prevented a hemoglobin-induced elevation in systolic blood pressure
[5]; wild type mice breathing 200 ppm nitric oxide for 7 minutes before infusion, terminated at infusion
  hemoglobin-induced elevation in systolic blood pressure: prevented a hemoglobin-induced elevation in systolic blood pressure

## O=NO [sodium nitrite, Sodium nitrite]
[2]; mouse, in vivo
  plasma methemoglobin level: 10±2%
[5]; awake mice, 48 nmol sodium nitrite i.v. five minutes before hemoglobin (0.48 g/kg)
  systemic hypertension caused by subsequent infusion of murine tetrameric hemoglobin: blocked the systemic hypertension
[5]; awake mice, 48 nmol sodium nitrite via tail vein
  blood pressure before murine tetrameric hemoglobin was infused: did not alter blood pressure

## HBOC-201: a chemically cross-linked bovine hemoglobin formulated in a salt solution; Biopure
[1]; in vivo
  mean arterial pressure after infusion: increase
  pulmonary arterial pressure after infusion: increase
  pulmonary vascular resistance after infusion: increase
  systemic vascular resistance after infusion: increase

## Tetrameric Hb: tetrameric hemoglobin solution (4 g/dl) prepared from lysed whole blood of wild type C57BL/6 mice
[4]; [8]
  CO (cardiac output): 9 ± 1 mL/min
  CVP (central venous pressure): 4 ± 0 mmHg
  Ea (arterial elastance): 8 ± 1 mmHg/μl
  HR (heart rate): 553 ± 18 bpm
  LVEDP (left ventricular end-diastolic pressure): 8 ± 2 mmHg
  LVESP (left ventricular end-systolic pressure): 117 ± 5 mmHg
  SVR (systemic vascular resistance): 15 ± 2 dynes*sec/cm^2
  Tau (time constant of isovolumic relaxation): 6 ± 1 ms
  dP/dtmax (maximum rate of developed left ventricular pressure): 13736 ± 606 mmHg/s
  dP/dtmin (minimum rate of developed left ventricular pressure): −12290 ± 620 mmHg/s
[4]; [9]
  CO (cardiac output): 10 ± 1 mL/min
  CVP (central venous pressure): 3 ± 0 mmHg
  Ea (arterial elastance): 9 ± 1 mmHg/μl
  HR (heart rate): 602 ± 12 bpm
  LVEDP (left ventricular end-diastolic pressure): 12 ± 1 mmHg
  LVESP (left ventricular end-systolic pressure): 158 ± 5 mmHg
  SVR (systemic vascular resistance): 16 ± 1 dynes*sec/cm^2
  Tau (time constant of isovolumic relaxation): 8 ± 1 ms
  dP/dtmax (maximum rate of developed left ventricular pressure): 12260 ± 750 mmHg/s
  dP/dtmin (minimum rate of developed left ventricular pressure): −10110 ± 640 mmHg/s
[4]; [10]
  CO (cardiac output): 12 ± 1 mL/min
  CVP (central venous pressure): 4 ± 0 mmHg
  Ea (arterial elastance): 5 ± 0 mmHg/μl
  HR (heart rate): 603 ± 20 bpm
  LVEDP (left ventricular end-diastolic pressure): 6 ± 1 mmHg
  LVESP (left ventricular end-systolic pressure): 101 ± 4 mmHg
  SVR (systemic vascular resistance): 8 ± 1 dynes*sec/cm^2
  Tau (time constant of isovolumic relaxation): 5 ± 0 ms
  dP/dtmax (maximum rate of developed left ventricular pressure): 11230 ± 750 mmHg/s
  dP/dtmin (minimum rate of developed left ventricular pressure): −10650 ± 430 mmHg/s
[4]; anesthetized NOS3−/− mice
  effect of infusion on invasive hemodynamic parameters: did not alter HR, LVESP, LVEDP, CO, dP/dtmax, dP/dtmin, SVR, Ea, τ, or CVP
[4]; anesthetized wild type mice
  effect of infusion on invasive hemodynamic parameters: increased LVESP, LVEDP, SVR, Ea, and τ and decreased CO without affecting dP/dtmax, dP/dtmin, or CVP
[5]
  tail systolic blood pressure after intravenous injection: significant increase in systolic blood pressure
[5]; listed as murine tetrameric hemoglobin solution
  tail systolic blood pressure after intravenous injection: significant elevation in blood pressure
[5]; solution containing 14.5% methemoglobin
  systemic blood pressure after infusion: caused systemic hypertension
